Reference: ChEMBL document CHEMBL3045022, “The discovery of potential cyclin A/CDK2 inhibitors: a combination of 3D QSAR pharmacophore modeling, virtual screening, and molecular docking studies” (Med Chem Res, 2013)
pIC50: −log10 of the molar value.

Biological target: Cyclin-dependent kinase 2/cyclin A (Homo sapiens, UniProt P24941)
Assay: Inhibition of CDK2/cyclinA (unknown origin)
Format: protein-complex assay

| Compound | pIC50 |
| --- | --- |
| Nc1nc(Nc2ccc(C(=O)O)cc2)nc(OCC2CCCCC2)c1N=O | 6.96 |
| COc1cccc(Nc2ncc(N=O)c(OCC3CCCCC3)n2)c1 | 6.47 |
| O=Nc1cnc(Nc2cccc(Br)c2)nc1OCC1CCCCC1 | 6.30 |
| CCOc1nc(Nc2ccc(OC)cc2)nc(N)c1C=O | 5.72 |
| Nc1nc(N)c([N+](=O)[O-])c(OCC2CCCCC2)n1 | 5.08 |
| Brc1cccc(Nc2nccc(OCC3CCCCC3)n2)c1 | 4.59 |
| Nc1nc(N)c(-c2ccco2)c(OCC2CCCCC2)n1 | 4.25 |
| Nc1nc(Nc2ccc(C(=O)O)cc2)nc(OCC2CCCCC2)c1C=O | 6.21 |
| COc1ccc(Nc2nc(N)c(C=O)c(OC(C)C)n2)cc1 | 5.74 |
| COc1ccc(Nc2nc(N)c(/C=N/O)c(OCC3CCCCC3)n2)cc1 | 5.08 |
| N#CCc1ccc(Nc2nc(N)cc(OCC3CCCCC3)n2)cc1 | 4.62 |
| Nc1nc(N)c(-c2cccs2)c(OCC2CCCCC2)n1 | 4.26 |
| N#Cc1c(N)nc(N)nc1OCC1CCCCC1 | 4.21 |
| COc1nc(N)nc(N)c1N=O | 4.10 |
| O=Nc1cnc(Nc2ccc(S(=O)(=O)NCC3CCCO3)cc2)nc1OCC1CCCCC1 (stereo not drawn) | 8.09 |
| O=Nc1cnc(Nc2ccc(S(=O)(=O)Nc3nccs3)cc2)nc1OCC1CCCCC1 | 7.72 |
| CC(C)Oc1nc(Nc2ccc(S(N)(=O)=O)cc2)nc(N)c1C=O | 7.59 |
| NC(=O)c1ccc(Nc2ncc(N=O)c(OCC3CCCCC3)n2)cc1 | 7.47 |
| O=Nc1cnc(Nc2cccc(CO)c2)nc1OCC1CCCCC1 | 7.35 |
| CCOc1nc(Nc2ccc(S(N)(=O)=O)cc2)nc(N)c1C=O | 7.31 |
| CCN(CC)S(=O)(=O)c1ccc(Nc2ncc(N=O)c(OCC3CCCCC3)n2)cc1 | 7.07 |
| CC[C@@H](C)Oc1nc(Nc2ccc(S(N)(=O)=O)cc2)ncc1C=O | 7.88 |
| N#CCc1cccc(Nc2nc(N)c(N=O)c(OCC3CCCCC3)n2)c1 | 7.48 |
| Nc1nc(Nc2ccc(S(N)(=O)=O)cc2)nc(OCC2CCCCC2)c1C=O | 7.31 |
| CCOc1nc(Nc2ccc(S(N)(=O)=O)cc2)nc(N)c1N=O | 7.03 |
| Nc1nc(Nc2ccc(S(N)(=O)=O)cc2)nc(OCC2CCCCC2)c1/C=N/O | 6.93 |
| CCN(CC)C(=O)c1ccc(Nc2nc(N)c(N=O)c(OCC3CCCCC3)n2)cc1 | 6.70 |
| CSc1cccc(Nc2nc(N)c(N=O)c(OCC3CCCCC3)n2)c1 | 6.40 |
